Assay results reported in publication PMC12120022, “Discovery and chemical optimisation of a potent, Bi-cyclic antimicrobial inhibitor of Escherichia coli PBP3” (Communications Biology, 2025).
≈ marks a conversion by molar mass, not a printed value. *1 amine or outer side, *2 acyl side, *3 side chain or, on linkers, in order; H or OH if unused. Where a SMILES comes first, the peptide text is derived from it. Bridges are numbered along the chain shown (N, C = ends). [ ]: non-standard residue; d: D form. TATA = O=C(CC[*:1])N1CN(C(=O)CC[*:2])CN(C(=O)CC[*:3])C1; Trp(6-Cl) = N[C@@H](Cc1c[nH]c2cc(Cl)ccc12)C(=O)O; hArg = N=C(N)NCCCC[C@H](N)C(=O)O

What was measured:
[1] = Mouse blood stability; format: in vitro ADME, CD-1 mice; settings: CD-1, mouse, whole blood (EDTA as anticoagulant), 37 °C, SAR peptides, read-out: Blood stability (t1/2) (converted)
Protocol: Stability assays were performed using freshly collected matrices from CD-1 mice, with anticoagulant as stated per dataset. Compound stocks in DMSO were tested at 5 μM final concentration (0.5% (v/v) DMSO). Compounds were incubated in blood or plasma at 37 °C for 24 h, with sampling at 0, 1, 2, 4, 6 and 24 h. Samples were prepared via protein precipitation using organic solvent containing internal standard, and analyzed by LC-MS/MS. Compound remaining was quantified based on the ratio of analyte to internal standard, and the half-life (t1/2) was calculated from a log linear plot of % remaining versus time.

[2] = tested on: Enterobacter cloacae KPC114; test: MIC; format: cell-based; settings: Enterobacter cloacae, KPC114, read-out: MIC Enterobacter cloacae KPC114
Protocol: (§1) Minimal inhibition concentration (MIC) assays were performed in accordance with CLSI standards, using cation-adjusted Mueller Hinton broth (caMHB; Sigma Aldrich) unless otherwise specified. Induction of pore expression in hyperporinated strains E. coli GKCW101 and GKCW102 was performed by addition of 0.1% (w/v) L-arabinose to cultures at OD600 ~ 0.3, with caMHB as the culture medium.

[3] = tested on: Acinetobacter baumannii NCTC 12156; test: MIC; format: cell-based; settings: Acinetobacter baumannii, NCTC12156; caMHB; replicates listed
Protocol: as §1

[4] = tested on: Escherichia coli ATCC BAA-2469; test: MIC; format: cell-based; settings: Escherichia coli, ATCCBAA2469; caMHB; replicates listed
Protocol: as §1

[5] = tested on: Enterobacter cloacae AR0038; test: MIC; format: cell-based; settings: Enterobacter cloacae, AR0038; caMHB; replicates listed
Protocol: as §1

[6] = tested on: Citrobacter freundii AR0116; test: MIC; format: cell-based; settings: Citrobacter freundii, AR0116; caMHB; replicates listed
Protocol: as §1

[7] = tested on: Proteus mirabilis AR159; test: MIC; format: cell-based; settings: Proteus mirabilis, AR159; caMHB; replicates listed
Protocol: as §1

[8] = tested on: Acinetobacter baumannii AR0275; test: MIC; format: cell-based; settings: Acinetobacter baumannii, AR0275; caMHB; replicates listed
Protocol: as §1

[9] = biological target: T1, EcPBP3 (Escherichia coli, UniProt P0AD68); test: Fluorescence polarisation competition assay with BOCILLIN-FL as tracer; format: binding; settings: competition format, NB, non-binder (100 μM top concentration)
T1 construct: For assays, selections and SPR a construct with residues 60–588 which has the N-terminal domain, but not the transmembrane helix, was used; made in house
T1 sequence (P0AD68 60-588): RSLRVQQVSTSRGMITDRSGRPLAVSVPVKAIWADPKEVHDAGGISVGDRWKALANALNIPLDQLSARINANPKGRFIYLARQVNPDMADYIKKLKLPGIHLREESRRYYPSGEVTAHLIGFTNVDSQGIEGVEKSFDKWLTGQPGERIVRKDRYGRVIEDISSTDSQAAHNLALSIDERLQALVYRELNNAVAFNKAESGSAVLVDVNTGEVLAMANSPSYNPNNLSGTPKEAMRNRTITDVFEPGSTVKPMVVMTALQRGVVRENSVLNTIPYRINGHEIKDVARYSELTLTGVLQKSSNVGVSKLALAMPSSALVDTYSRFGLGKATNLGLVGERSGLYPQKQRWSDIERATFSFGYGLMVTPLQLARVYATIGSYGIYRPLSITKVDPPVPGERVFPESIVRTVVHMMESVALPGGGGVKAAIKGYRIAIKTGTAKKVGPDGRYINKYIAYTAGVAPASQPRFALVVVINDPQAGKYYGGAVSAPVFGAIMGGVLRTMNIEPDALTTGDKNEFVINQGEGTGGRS
Protocol: Binding of output peptides to EcPBP3 was evaluated using a fluorescence polarisation (FP) assay.
[…] 10 µL of protein (9.4 nM) was mixed with either 5 µL of peptide or 5 µL of buffer and then the assay was initiated by the addition of 10 µL of tracer (1 nM) (final volume 25 µL), in a black 384 low bind, low volume plate (Corning). The buffer was 10 mM HEPES (Sigma), 2% (v/v) glycerol (Sigma), 300 mM NaCl (Sigma), adjusted to pH 8. The plate was incubated for 1 h at 25 °C and then read in a PHERAstar FS (BMG) using with an “FP 485 520 520” optic module (excitation 485 nm, emission 520 nm). The gain was determined immediately prior to the read on a tracer-only well.
Dotmatics (Dotmatics) workflows performing the above calculations were used to process the data. Values quoted are the geometric means of at least 2 repeats.

[10] = biological target: T1, EcPBP3; test: SPR binding assay on immobilised EcPBP3; settings: 37 °C, kinetic fitting; NB = no binding at 2500 nM (Tables S-4, S-5) or 5000 nM (Table 1); read-out: Kd (nM) by SPR (geomean)
Procedure, shortened: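 EcPBP3 amine-coupled to CM5 chip (1500-2500 RU); compounds injected at 37 °C in 10 mM HEPES pH 8.0, 200 mM NaCl, 0.05% Tween-20, 2% DMSO, 50 μL min^–1, 150 s contact, 2400 s dissociation. Double-referenced sensorgrams kinetically fitted for Kd; geometric mean of ≥2 biological replicates.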

[11] = tested on: E. coli GKCW102 (EcPore); settings: caMHB; biological replicates or their range
Protocol: To evaluate the engagement of EcPBP3 by a bicyclic peptide in whole cells lacking the outer membrane permeability barrier, peptides were screened in ‘hyperporinated’ E. coli strains in which a constitutively open FhuA pore (FhuAΔC/Δ4L, lacking N-terminal cork domain and external loops) was chromosomally expressed under control of an arabinose-inducible promoter.
as §1

## CC(C)[C@@H]1NC(=O)[C@H](Cc2c[nH]c3ccccc23)NC(=O)[C@@H]2CCCN2C(=O)[C@@H]2CSCCC(=O)N3CN(CN(C3)C(=O)CCSC[C@H](N)C(=O)N[C@@H](CO)C(=O)N[C@@H](Cc3ccccc3)C(=O)N3CCC[C@H]3C(=O)N[C@@H](CCCCNC(=N)N)C(=O)N2)C(=O)CCSC[C@@H](C(=O)N[C@@H](C)C(N)=O)NC(=O)CNC(=O)[C@H](CCC(=O)O)NC1=O [Peptide 71] (HELM PEPTIDE1{C.S.F.P.[N=C(N)NCCCC[C@H](N[*:1])C(=O)[*:2]].C.P.W.V.E.G.C.A.[am]}|CHEM1{[O=C(CC[*:1])N1CN(C(=O)CC[*:2])CN(C(=O)CC[*:3])C1]}$PEPTIDE1,CHEM1,1:R3-1:R1|PEPTIDE1,CHEM1,6:R3-1:R2|PEPTIDE1,CHEM1,12:R3-1:R3$$$V2.0)
[1]
  half-life at 5 μM: 5.7 h

## CC(C)[C@@H]1NC(=O)[C@H](Cc2c[nH]c3ccccc23)NC(=O)[C@@H]2CCCN2C(=O)[C@@H]2CSCCC(=O)N3CN(CN(C3)C(=O)CCSC[C@H](N)C(=O)N[C@@H](CO)C(=O)N[C@@H](Cc3ccccc3)C(=O)N3CCC[C@H]3C(=O)N[C@@H](CCCCNC(=N)N)C(=O)N2)C(=O)CCSC[C@@H](C(N)=O)NC(=O)CNC(=O)[C@H](CCC(=O)O)NC1=O [Peptide 72, CSFP[HArg]CPWVEGC] (HELM PEPTIDE1{C.S.F.P.[N=C(N)NCCCC[C@H](N[*:1])C(=O)[*:2]].C.P.W.V.E.G.C.[am]}|CHEM1{[O=C(CC[*:1])N1CN(C(=O)CC[*:2])CN(C(=O)CC[*:3])C1]}$PEPTIDE1,CHEM1,1:R3-1:R1|PEPTIDE1,CHEM1,6:R3-1:R2|PEPTIDE1,CHEM1,12:R3-1:R3$$$V2.0)
[1]
  half-life at 5 μM: 3 h

## CC(=O)N[C@H]1CSCCC(=O)N2CN3CN(C2)C(=O)CCSC[C@H](NC(=O)[C@H](CCCCNC(=N)N)NC(=O)[C@@H]2CCCN2C(=O)[C@H](Cc2ccccc2)NC(=O)[C@H](CO)NC1=O)C(=O)N1CCC[C@H]1C(=O)N[C@@H](Cc1c[nH]c2ccccc12)C(=O)N[C@@H](C(C)C)C(=O)N[C@@H](CCC(=O)O)C(=O)NCC(=O)N[C@H](C(=O)N[C@@H](C)C(N)=O)CSCCC3=O [Peptide 74] (HELM PEPTIDE1{[ac].C.S.F.P.[N=C(N)NCCCC[C@H](N[*:1])C(=O)[*:2]].C.P.W.V.E.G.C.A.[am]}|CHEM1{[O=C(CC[*:1])N1CN(C(=O)CC[*:2])CN(C(=O)CC[*:3])C1]}$PEPTIDE1,CHEM1,2:R3-1:R1|PEPTIDE1,CHEM1,7:R3-1:R2|PEPTIDE1,CHEM1,13:R3-1:R3$$$V2.0)
[1]
  half-life at 5 μM: 17.7 h

## C[C@@H](O)[C@H]1C(=O)N2C(C(=O)O)=C(S[C@@H]3CN[C@H](C(=O)N(C)C)C3)[C@H](C)[C@H]12 [Meropenem, reference compound]
[2]
  MIC: > 2 µg/mL
[3]
  MIC: 1.1 µg/mL (≈ 2.87 µM)
[4]
  MIC: > 2 µg/mL
[5]
  MIC: > 2 µg/mL
[6]
  MIC: > 2 µg/mL
[7]
  MIC: > 2 µg/mL
[8]
  MIC: > 2 µg/mL

## C[C@H](N)C(=O)N[C@H]1CSCCC(=O)N2CN3CN(C2)C(=O)CCSC[C@H](NC(=O)CNC(=O)[C@H](Cc2ccccc2)NC(=O)[C@H]([C@@H](C)O)NC(=O)[C@H](CCCNC(=N)N)NC1=O)C(=O)N[C@@H](Cc1c[nH]c2ccccc12)C(=O)N[C@@H](Cc1c[nH]c2ccccc12)C(=O)N[C@@H](CCC(=O)O)C(=O)NCC(=O)N[C@H](C(=O)N[C@@H](C)C(N)=O)CSCCC3=O [Peptide 5]
[9]
  IC50 (nM) by fluorescence polarisation with Bocillin FL as tracer, Geometric mean (Lower 95% CI of geo. Mean; Upper 95% CI of geo. Mean, n=number of values): showed binding to EcPBP3
[9]; read-out: IC50 (nM) by fluorescence polarisation with Bocillin FL as tracer, Geometric mean (Lower 95% CI of geo. Mean; Upper 95% CI of geo. Mean, n=number of values)
  IC50: 1550 nM
[10]
  Kd: 369 nM
[11]
  MIC E. coli GKCW102 (EcPore): limited activity

## CC(=O)N[C@@H](C)C(=O)N[C@H]1CSCCC(=O)N2CN3CN(C2)C(=O)CCSC[C@H](NC(=O)[C@H](CCCCNC(=N)N)NC(=O)[C@@H]2CCCN2C(=O)[C@H](Cc2ccccc2)NC(=O)[C@H](CO)NC1=O)C(=O)N1CCC[C@H]1C(=O)N[C@@H](Cc1c[nH]c2cc(Cl)ccc12)C(=O)N[C@@H](C(C)C)C(=O)N[C@@H](CCC(=O)O)C(=O)NCC(=O)N[C@H](C(=O)N[C@@H](C)C(N)=O)CSCCC3=O [Peptide 75, [-Ac]ACSFP[HArg]CP[6ClTrp]VEGCA] (Ac-ACSFP[hArg]CP[Trp(6-Cl)]VEGCA-NH2; linker 2-7-13 via TATA)
[1]
  half-life at 5 μM: 11.4 h

## C[C@H](N)C(=O)N[C@H]1CSCCC(=O)N2CN3CN(C2)C(=O)CCSC[C@H](NC(=O)[C@H](CCCCN)NC(=O)[C@@H]2CCCN2C(=O)[C@H](Cc2ccccc2)NC(=O)[C@H](CO)NC1=O)C(=O)N1CCC[C@H]1C(=O)N[C@@H](Cc1c[nH]c2ccccc12)C(=O)N[C@H](C)C(=O)N[C@@H](CCC(=O)O)C(=O)NCC(=O)N[C@H](C(=O)N[C@@H](C)C(N)=O)CSCCC3=O [Peptide 69] (HELM PEPTIDE1{A.C.S.F.P.K.C.P.W.[dA].E.G.C.A.[am]}|CHEM1{[O=C(CC[*:1])N1CN(C(=O)CC[*:2])CN(C(=O)CC[*:3])C1]}$PEPTIDE1,CHEM1,2:R3-1:R1|PEPTIDE1,CHEM1,7:R3-1:R2|PEPTIDE1,CHEM1,13:R3-1:R3$$$V2.0)
[10]
  Kd: > 2500 nM
[11]
  MIC E. coli GKCW102 (EcPore): > 16 µg/mL

## CC(=O)N[C@@H](C)C(=O)N[C@H]1CSCCC(=O)N2CN3CN(C2)C(=O)CCSC[C@H](NC(=O)[C@H](CCCCNC(=N)N)NC(=O)[C@@H]2CCCN2C(=O)[C@H](Cc2ccccc2)NC(=O)[C@H](CO)NC1=O)C(=O)N1CCC[C@H]1C(=O)N[C@@H](Cc1c[nH]c2ccccc12)C(=O)N[C@@H](C(C)C)C(=O)N[C@@H](CCC(=O)O)C(=O)NCC(=O)N[C@H](C(=O)N[C@@H](C)C(N)=O)CSCCC3=O [Peptide 73]
[1]
  half-life at 5 μM: 14.1 h
